The results in this text go back to a melting point compilation (Tetko et al.; mined from patent text by program, amines drawn as free bases though some values may be those of a salt).

In the case of `COC(=O)[C@H](CS)NC(=O)[C@H](CO)NC(=O)OC(C)(C)C`, the melting point (commonly the temperature, or range, at which the solid turns liquid) was in the range of 72 to 74 °C. Take `COC(=O)c1ccc(-c2ccccc2CBr)cc1`: the melting point lay in the range of 80 to 81 °C.

For the compound `NCC1Cc2cc(C(F)(F)F)cc(-c3ccc(C(F)(F)F)cc3)c2O1` (stereo unspecified), the melting point is > 250 °C. As for `C[Si](C)(C)O[C@@]1(C(F)(F)F)OCN(C(=O)OCc2ccccc2)[C@H]1Cc1ccccc1`, the melting point was in the range of 98 to 101 °C. `CNC1(C)CN(c2cc3c(cc2F)c(=O)c(C(=O)O)cn3C2CC2)C1`: the melting point is > 300 °C.

`Oc1ccc2ccc(OCc3ccccc3)cc2c1` registered a melting point of 152 to 154 °C. `Cn1nc(C2CCN(CCn3c(=O)[nH]c4ccccc4c3=O)CC2)c2ccc(F)cc21` showed a melting point of 250 °C. For `CN(C)c1ccc(N=Nc2ccc(S(=O)(=O)NCc3ccc4c(c3)-c3n[nH]c(=O)c5cccc(c35)O4)cc2)cc1`, the melting point was > 300 °C. `CC(Cc1cccc(S(N)(=O)=O)c1)=NO` displayed a melting point of 154 to 157 °C. To `O=C(O)c1ccc(-c2ccc(I)cc2)cc1` belongs 303 to 305 °C; to `O=C(O)c1cnc2n(c1=O)CCCC2=NNc1ccccc1`, 267 to 268 °C. The compound `COc1ccc(-c2csc(N(C)c3cc4ccccc4cn3)n2)cc1OC` showed a melting point of 165 to 166 °C. Take `COc1cc(C(C)C)c2c(c1)S(=O)(=O)N(COc1cc(C#N)nn1-c1ccc(Cl)cc1)C2=O`: the melting point came to 135 °C. To `CCN(CC)CCCOc1ccc(C(=O)c2oc3ccccc3c2-c2ccccc2)cc1` belongs 122 to 126 °C; to `CN(CCOc1ccc(CC(Oc2ccc(Cl)cc2)C(=O)O)cc1)c1nc2ccccc2o1` (stereo unspecified), 164 to 165 °C; to `CCOc1ccc2c(c1)C(C)(c1cc(C(=O)N3CC4CCN(C)C4C3)ccc1Cl)C(=O)N2S(=O)(=O)c1ccc(C(=O)NC(C)(C)C)cc1OC` (stereo unspecified), 130 °C. To `[N-]=[N+]=NC1CC(n2cc(Cl)c(=O)[nH]c2=O)OC1CO` (stereo unspecified) belongs 65 °C; to `O=c1c2cccc3ncc(c(=O)n1CCCCNS(=O)(=O)CC(F)(F)F)n32`, 154 to 155 °C. `Cc1nn(-c2ccc([N+](=O)[O-])cc2F)c(=O)n1C(F)F` had a melting point of 72 to 77 °C.

As for `CCOC(=O)C1COc2ccc(Cl)c(Cl)c2O1` (stereo unspecified), the melting point was 92 to 94 °C. With `CCc1cc(C(C)=O)c(OC)cc1OCc1cccc(C#N)c1`, the melting point lay within 124 to 126 °C. As to `O=C(NCCCn1cnc(-c2ccccc2)c1)c1ccc(Cl)cc1`, the melting point is 103 to 105 °C. `Nc1c(Cl)c(Oc2ccccc2)nc(C(=O)O)c1Cl`: the melting point is 158 to 160 °C. `CN(C(=O)[C@@H](OP(c1ccccc1)c1ccccc1)C(C)(C)C)P(c1ccccc1)c1ccccc1` yielded a melting point of 95 to 96 °C. In turn, `Cc1c(Cc2ccccc2)c(=O)n(C)c2cc(OCc3nnn[nH]3)cc(OCc3nnn[nH]3)c12` gave a melting point of 250 to 253 °C. For `CC1=NC(C)(C)SC1=NOC(=O)N(C)SN(C)C(=O)F`, the melting point was in the range of 77 to 79 °C.

`CC(=O)NCC1CN(c2ccc(N3CCC(=CC#N)C(C)C3)c(F)c2)C(=O)O1` (stereo unspecified) yielded a melting point of 152 to 153 °C. `Cn1cc(-c2ccccc2)c(=O)c(-c2ccc(F)cc2)c1` came in with a melting point of 166 °C. `CN1CCC(C(=O)Nc2ccc(CN(C)C3CCOCC3)cc2)=Cc2cc(Br)ccc21` gave a melting point of 62 to 64 °C. To `NC(=NCC(F)(F)F)Nc1ccnc(CCCO)n1` belongs 136 to 138 °C.

`NC(=O)CC1(c2ccccc2)Oc2ccccc2O1` showed a melting point of 114 to 115 °C.

On to `N#Cc1c(N2CCCC2)cc(-c2ccccc2)c2c1-c1ccccc1C2=O`, for which the melting point was in the range of 202 to 204 °C. For `Cn1c(C(=O)O)cc2c(OCc3ccccc3)cccc21`, the melting point came to 217 °C. To `CCc1cccc2c3c([nH]c12)[C@@]1(CC(=O)O)CC[C@H]1CC3` (relative stereo) belongs 170 to 171 °C.

As to `COc1ccc(-c2cn3ccc(C)cc3n2)cc1OC`, the melting point was found to be 163 °C. For the compound `Cc1c(OCC(F)(F)F)ccnc1CS(=O)c1nc2cc(-n3ccnc3)c(F)cc2[nH]1` (stereo unspecified), the melting point fell in the range of 234 to 235 °C.

On to `COc1ccc(-c2ccc(C(C)=O)cc2Cl)c(OC)c1`, for which the melting point was 115 to 118 °C. Consider `O=C1Nc2ccc(F)cc2C12COc1cc3c(cc12)CCO3` (stereo unspecified), for which the melting point lay in the range of 257 to 259 °C.

For `Clc1cc(-c2ccc(CBr)c(Cl)c2)ccc1CBr`, the melting point lay within 148 to 154 °C.

With `Cn1c(Cl)cnc1C(c1cc(F)ccc1F)S(=O)(=O)c1ccc(Cl)cc1` (stereo unspecified), the melting point lay within 179 to 180 °C. Then `Cn1cc(-c2cccc(Cl)c2)c(=O)c(-c2cccc(Cl)c2)c1`, with 164 to 167 °C; and `Cc1nc2c(N)nc3c(c2n1CC(C)(C)O)CCCC3`, with 290 to 292 °C. Take `COc1cc(Cc2cnc(NC(=O)Cc3ccccc3)nc2N)cc(OC)c1OC`: the melting point was 181 to 183 °C. Take `CCCc1c(OCCCCOc2ccc(Sc3ccccc3CC(=O)O)cc2)ccc(C(C)=O)c1O`: the melting point fell in the range of 76 to 78 °C. Then `O=C1Nc2cc(Cl)ccc2C(=O)C1c1csc2ccccc12` (stereo unspecified), with 320 °C; and `Cn1c(Cl)cnc1C(OC(=O)OC(C)(C)C)c1cc(F)ccc1F` (stereo unspecified), with 125 to 126 °C; and `Oc1cc(N=Nc2ccccn2)ccc1-c1ccc(-c2ccc(N=Nc3ccccn3)cc2O)o1`, with 164 to 165 °C. In the case of `Cc1c(Nc2ccc(Cl)cc2C(=O)O)cccc1C(F)(F)F`, the melting point lay within 220 to 222 °C. To `C[C@@H](OC(=O)N1C(C)(C)COC1(C)C)C(C)(C)O` belongs 53 °C. Regarding `CN1CCN(C(=O)c2ccc([N+](=O)[O-])cc2)CC1`, the melting point was 100 to 101 °C. The compound `Cc1cc(C(=O)O)ccc1C1=CCCCC1C(C)(C)C` (stereo unspecified) gave a melting point of 152 °C. To `O=C1CCC(N2Cc3c(OCc4ccccn4)cccc3C2=O)C(=O)N1` (stereo unspecified) belongs 235 to 237 °C; to `COc1ccc(-c2cc3cc(F)c(F)cc3[nH]2)cc1NCc1ccc([N+](=O)[O-])cc1`, 181 to 182 °C; to `CCCC(=O)c1cnc2c(C=O)cccc2c1Nc1ccccc1C`, 142 to 144 °C. Compound `CCCCCCCCCCCCNC(=O)CS(=O)(=O)Nc1c(C(C)C)cccc1C(C)C` gave a melting point of 83 to 85 °C. `O=C(Nc1ccc(C(F)(F)F)cc1)NC1CCN(S(=O)(=O)c2ccc(C(=O)O)cc2)CC1` registered a melting point of 188 to 192 °C.

Take `Nc1c(CCO)cccc1C(O)c1ccc(Br)cc1` (stereo unspecified): the melting point was 128 to 129 °C.

For `CCOC(=O)C1=C(C)NC2=C(C(=O)OC2)C1c1cccs1` (stereo unspecified), the melting point was determined as 232 °C. `Nc1ccc(Oc2ncc(C(F)(F)F)cc2Cl)cc1` registered a melting point of 85 to 87 °C. Take `C=CCOc1ccc(S(=O)(=O)N2CCN(C)CC2)cc1-c1nc2c(CCC)nn(C)c2c(=O)[nH]1`: the melting point lay in the range of 151 to 153 °C. To `CC(=O)C(=O)N1CCC[C@H]1C(=O)O` belongs 88 to 89 °C. Then `Cn1c2c(c3cccc(OCc4ccccc4)c31)C(=O)NCC2`, with 199 to 201 °C; and `CCOC(=O)Nc1ccc(-n2ccc(C#N)c2)c(F)c1`, with 188 to 190 °C. In turn, `O=S(=O)(c1ccccc1)n1cc(CCOC2OC(CO)C(O)CC2O)c2ccccc21` (stereo unspecified) showed a melting point of 55 to 57 °C. Take `N#CC1=C(c2ccccc2)Nc2n[nH]cc2C1c1cccc2ccccc12` (stereo unspecified): the melting point came to 174 °C. `CC1=CC(O)C(OC(=O)c2ccc(N)cc2)C(C)(C)CC1=O` (stereo unspecified): the melting point was 170 to 171 °C.

On to `O=C(O)Cc1ccc(OCCNC(=O)[C@@H]2Cc3ccccc3N2S(=O)(=O)c2ccc(Oc3ccc(F)cc3)cc2)cc1`, for which the melting point is 65 °C.

`CC(C)Cn1c(CNC(=O)OC(C)(C)C)c(OCCCC(F)(F)F)c2cc(O)ccc2c1=O` came in with a melting point of 173 to 174 °C. In the case of `CN(C1CCN(Cc2ccc(F)cc2)CC1)S(=O)(=O)c1ccc(Nc2nccc(Nc3ccc(F)cc3)n2)cc1`, the melting point fell in the range of 129 to 131 °C. For `Cc1nc(Cc2ccc([N+](=O)[O-])cc2)cs1`, the melting point lay within 118 to 119 °C.

`Cc1ccc(C(=O)n2c3c(c4ccccc42)C(C(=O)O)CCC3)cc1` (stereo unspecified): the melting point was in the range of 181 to 183 °C.

`CC(C)COc1ccccc1C(N)=O`: the melting point lay in the range of 125 to 128 °C.

`O=C1CCc2ccc(C(F)(F)F)cc2CC1`: the melting point came out at 78 °C.

With `CC(C)CCS(=O)(=O)NC(=O)/C=C/c1cc(OC(C)C)nn1Cc1ccc(C(F)(F)F)cc1Cl`, the melting point lay within 139 to 140 °C. With `CCOC(=O)c1c(Nc2ccc(Cl)cc2)n[nH]c1C`, the melting point is 223 to 225 °C.

`CCOC(=O)c1cc2cc(F)cnc2n1Cc1ccccc1`: the melting point lay in the range of 74 to 75 °C.

In turn, `CC(=O)NCC1CC(c2ccc(-n3ccc(C#N)c3)c(F)c2)=NO1` (single isomer, unassigned; (-)) returned a melting point of 159 to 161 °C. `OC1c2ccc(Cl)cc2SC1Cn1ccnc1` (stereo unspecified) gave a melting point of 164 to 165 °C. `O=C(c1ccc(Cl)cc1)c1cccc2c1CCCC2C(=O)O` (stereo unspecified) had a melting point of 152 to 154 °C. The compound `CC(=O)C1=CCC2C3CCC4CC(OS(=O)(=O)c5ccc(C)cc5)CCC4(C)C3C(=O)CC12C` (stereo unspecified) came in with a melting point of 147 to 151 °C.

With `CC(C)(C)OC(=O)N1CC[C@@H](NC(=O)c2ccc(-n3cc4ccccc4n3)cc2)C1`, the melting point fell in the range of 211 to 212 °C. To `O=C(CC(=O)C1CC1)c1cccnn1` belongs 85 to 87 °C; to `CCOC(=O)c1cn(-c2ccc(OC)cc2)c2c(F)c(F)c(F)c(C)c2c1=O`, 175 to 176 °C. `Nc1ccc(-c2nnc(-c3ccccn3)nn2)nc1`: the melting point is 207 to 209 °C. For `OCC1OC(n2cnc3c(NNC4CCSc5ccccc54)ncnc32)C(O)C1O` (stereo unspecified), the melting point lay in the range of 105 to 107 °C. Consider `CC(C)C[C@H](NC(=O)[C@H](Cc1ccccc1)NP(=O)(OCc1ccccc1)OCc1ccccc1)C(=O)O`, for which the melting point lay within 90 to 92 °C.
